Some test systems named below: MALME-3M melanoma; OVCAR-8 ovarian; SW-620 colon; TK-10 renal; U251 CNS; UO-31 renal; EKVX NSCLC; NCI-H226 lung; SF-539 CNS.
Holding throughout (assay): NCI-60 cell line screen, 48 h

“And” between values parts separate entries of the source, which are not always exact repeats. Equal entries are not always repeated.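 Interpolation was linear, between the two tested concentrations surrounding the appropriate level; five concentrations were tested over 48 hours in 96-well plates. GI50 is the concentration that inhibits growth by half. TGI marks complete inhibition of growth.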

`O=C1C2C(C(=O)N1c1ccccc1)C1([N+](=O)[O-])C=C3c4ccccc4N(C(=O)c4ccccc4)C32C2C(=O)N(c3ccccc3)C(=O)C21` (centres undefined): the TGI with MALME-3M melanoma, with OVCAR-8 ovarian, in the assay with SW-620 colon, with TK-10 renal, with U251 CNS and in the assay with UO-31 renal was greater than 100 µM throughout.

As for `COC(=O)C12OCC34C(CC5C(C)C6=CC(=O)OC6=CC5(C)C3C(O)C1O)OC(=O)C(O)C24` (centres undefined), the GI50 in the assay with EKVX NSCLC was 0.249 µM; in the assay on MALME-3M melanoma, 0.0896 µM; with NCI-H226 lung it was 0.0875 µM; with OVCAR-8 ovarian it was 0.328 µM; in the assay on SF-539 CNS, 0.0328 µM; with SW-620 colon, 0.282 µM. For the same compound, the GI50 is 0.534 µM in the assay with TK-10 renal and 0.0446 µM in the assay on U251 CNS. Moreover, the TGI was 0.351 µM and 0.665 µM in the assay with MALME-3M melanoma; 14.7 µM with OVCAR-8 ovarian; 0.116 µM and 0.397 µM with SF-539 CNS; 9.4 µM in the assay on SW-620 colon; 58.2 µM in the assay on TK-10 renal; 61.8 µM with UO-31 renal.

With `COc1ccc(/C=C2\CCC(CCN(C)C)(C3=CCCC3)C2=O)cc1Br` (centres undefined), the TGI in the assay on EKVX NSCLC turned out to be 8.62 µM; in the assay on MALME-3M melanoma, 28 µM; in the assay on NCI-H226 lung, 31.4 µM; in the assay with OVCAR-8 ovarian it was 21.9 µM; in the assay on SF-539 CNS it was 25.7 µM; in the assay with SW-620 colon it was 20.3 µM. Moreover, the TGI in the assay with TK-10 renal was 20 µM; in the assay on U251 CNS, 19 µM; in the assay on UO-31 renal, 17.6 µM.

`O=C(N/N=C1\C(=O)N(c2nccs2)C(=O)C(=O)C1c1nc2ccccc2s1)c1ccccc1O` (centres undefined): the TGI in the assay on EKVX NSCLC, in the assay on MALME-3M melanoma, in the assay with NCI-H226 lung, in the assay with OVCAR-8 ovarian, in the assay on SF-539 CNS and in the assay with SW-620 colon was greater than 100 µM in each case. The TGI with TK-10 renal was greater than 100 µM; in the assay on U251 CNS it was greater than 100 µM; in the assay with UO-31 renal, 35.4 µM.

On to `CCc1cc(CCC(=O)Nc2ccccc2[N+](=O)[O-])[nH]c(=S)n1`, for which the TGI in the assay on EKVX NSCLC, in the assay on NCI-H226 lung, in the assay on OVCAR-8 ovarian, in the assay with SF-539 CNS, in the assay on SW-620 colon and in the assay with TK-10 renal was greater than 100 µM in each case. For the same compound, the TGI in the assay with U251 CNS and in the assay with UO-31 renal was greater than 100 µM each time.

In the case of `CN(C)CCNC(=O)Cn1cnc2cccc([N+](=O)[O-])c2c1=O`, the TGI in the assay with EKVX NSCLC, with MALME-3M melanoma, in the assay with NCI-H226 lung, in the assay with SF-539 CNS, in the assay on SW-620 colon and with TK-10 renal was greater than 100 µM each time. Also, the TGI with U251 CNS and in the assay with UO-31 renal was greater than 100 µM throughout.

With `CCOC(=O)C(CC/C=C\c1ccccc1)N1CCC[C@H]1C(=O)OC` (some centres undefined), the TGI in the assay on EKVX NSCLC, in the assay on MALME-3M melanoma, with NCI-H226 lung, with OVCAR-8 ovarian, with SF-539 CNS and in the assay on SW-620 colon was greater than 100 µM each time. Besides, the TGI in the assay on TK-10 renal, in the assay on U251 CNS and with UO-31 renal was greater than 100 µM in each case.

As to `CCOC(=O)c1cnc2sc3ccc4ccccc4c3n2c1=O`, the TGI with EKVX NSCLC, in the assay on MALME-3M melanoma, in the assay on NCI-H226 lung, with OVCAR-8 ovarian, with SF-539 CNS and in the assay on SW-620 colon was greater than 100 µM throughout. The TGI was greater than 100 µM with TK-10 renal, greater than 100 µM in the assay on U251 CNS and 94.6 µM in the assay with UO-31 renal.

Turning to `O=C(CCn1[nH]c(=O)c(Cl)c(Cl)c1=O)NNC(=O)C[n+]1ccccc1`, the TGI in the assay with EKVX NSCLC, with MALME-3M melanoma, in the assay with NCI-H226 lung, in the assay with OVCAR-8 ovarian, in the assay with SF-539 CNS and with SW-620 colon was greater than 100 µM each time. The TGI in the assay on TK-10 renal and in the assay with UO-31 renal was greater than 100 µM each time.

Turning to `Cc1cccc2c1CCC21OC(=O)c2c1ccc1ccccc21` (centres undefined), the TGI is greater than 100 µM in the assay on EKVX NSCLC; 75.5 µM in the assay on MALME-3M melanoma; greater than 100 µM with NCI-H226 lung; greater than 100 µM in the assay on OVCAR-8 ovarian; greater than 100 µM with SW-620 colon; greater than 100 µM in the assay on TK-10 renal. Besides, the TGI in the assay on U251 CNS and in the assay on UO-31 renal was greater than 100 µM each time.

Take `O=C(CC(=O)c1cccc2ccccc12)C(=O)NC1C2CC3CC(C2)CC1C3` (centres undefined): the TGI in the assay with EKVX NSCLC, in the assay with MALME-3M melanoma, in the assay with NCI-H226 lung, in the assay on OVCAR-8 ovarian, with SF-539 CNS and in the assay on SW-620 colon was greater than 100 µM in each case. Besides, the TGI in the assay on TK-10 renal, in the assay with U251 CNS and with UO-31 renal was greater than 100 µM in each case.

Regarding `CSc1snc2sc3c(Cl)nnnc3c12`, the TGI in the assay on EKVX NSCLC came out at 38.6 µM; in the assay on MALME-3M melanoma, 29.3 µM; in the assay with OVCAR-8 ovarian it was 21 µM; in the assay on SF-539 CNS it was 32.1 µM; in the assay with SW-620 colon it was 16.1 µM; with TK-10 renal, 30.9 µM. Further, the TGI with U251 CNS stood at 28.6 µM; in the assay with UO-31 renal, 25.6 µM.

In the case of `Cc1cccc(C(C)(C)C)c1NC(=O)CCc1nc(=S)[nH][nH]1`, the TGI in the assay with MALME-3M melanoma, with NCI-H226 lung, in the assay on OVCAR-8 ovarian, in the assay with SF-539 CNS, with SW-620 colon and in the assay with TK-10 renal was greater than 100 µM throughout. Further, the TGI with U251 CNS and in the assay on UO-31 renal was greater than 100 µM throughout.

In the case of `CCCCCCCCCCCCCCCCCCOCC(CCP(=O)(CP(=O)(O)O)Oc1ccccc1)OCCCCCCCCCCCCCCCCCC` (centres undefined), the TGI in the assay on EKVX NSCLC, with MALME-3M melanoma, with NCI-H226 lung, with OVCAR-8 ovarian, in the assay on SF-539 CNS and in the assay on SW-620 colon was greater than 100 µM each time. Further, the TGI with TK-10 renal and with U251 CNS was greater than 100 µM in each case.

Consider `COc1ccc2oc(C(=O)O)c3c2c1CCC3CCC(=O)O` (centres undefined), for which the TGI in the assay on EKVX NSCLC, with MALME-3M melanoma, in the assay on OVCAR-8 ovarian, in the assay on SF-539 CNS, in the assay with SW-620 colon and in the assay on TK-10 renal was greater than 100 µM each time. For the same compound, the TGI in the assay on U251 CNS and with UO-31 renal was greater than 100 µM throughout.

For the origin of these results see PubChem BioAssay (NCI).
